Key:
[1] = tested on: Echinochloa oryzoides (Ard.) Fritsch.; test: Preemergence weed control under flooded paddy conditions, ECHORC (Watergrass (Calif.)); assay type: in vivo; settings: flooded paddy; further: meaning of each grade not given here
Cyperus iria = test: Preemergence weed control under flooded paddy conditions, CYPIR (Rice Flatsedge); assay type: in vivo; settings: flooded paddy; further: meaning of each grade not given here
[2] = tested on: Cyperus serotinus, Rottb.; test: Preemergence weed control under flooded paddy conditions, CYPSE (Flatsedge); assay type: in vivo; further: meaning of each grade not given here
[3] = tested on: Monochoria vaginalis, Presl.; test: Preemergence weed control under flooded paddy conditions, MOOVA (Monochoria); assay type: in vivo; settings: flooded paddy; further: meaning of each grade not given here
Sagittaria pygmaea, L. = test: Preemergence weed control under flooded paddy conditions, SAGPY (Arrowhead (Pygmaea)); assay type: in vivo; settings: flooded paddy; further: meaning of each grade not given here
[4] = tested on: Oryza sativa, (L.) Tebonnet; test: Rice tolerance to post-transplant applications under flooded paddy conditions (Example 187), ORYSAT (Rice, Tebonnet); settings: for herbicidal effect rating ORYSAT: rated 3-4 weeks after treatment; for herbicidal effect rating, ORYSAT (rice tolerance): rated three to four weeks after treatment; on herbicidal effect rating ORYSAT: meaning of each grade not given here
[5] = Rate 0.0320 kg/ha, preemergence, rated 3-4 weeks after treatment
[6] = Rate 0.0620 kg/ha, preemergence, rated 3-4 weeks after treatment
[7] = Rate 0.1250 kg/ha, preemergence, rated 3-4 weeks after treatment
[8] = Rate 0.2500 kg/ha, preemergence, rated 3-4 weeks after treatment
[9] = Rate 0.5000 kg/ha, preemergence, rated 3-4 weeks after treatment
[10] = 0.0313 kg/ha, preemergence weeds, rated three to four weeks after treatment
[11] = 0.0625 kg/ha, preemergence weeds, rated three to four weeks after treatment
[12] = 0.1250 kg/ha, preemergence weeds, rated three to four weeks after treatment
[13] = 0.2500 kg/ha, preemergence weeds, rated three to four weeks after treatment

For Cn1c(C(F)(F)F)cc(=O)n(-c2ccc3snc(-c4ccccc4OCC(=O)C(C)(C)C)c3c2)c1=O [Example 549, 2,4(1H,3H)-Pyrimidinedione, 3-{3-[o-(3,3-dimethyl-2-oxobutoxy)phenyl)-1,2-benzisothiazol-5-yl}-1-methyl-6-(trifluoromethyl)-], the “herbicidal effect rating, ECHORC” value [1, 5] was 3.0, the “herbicidal effect rating, ECHORC” value [1, 6] was 3.6 and the “herbicidal effect rating, ECHORC” value [1, 7] was 5.1. For the same compound, the “herbicidal effect rating, ECHORC” value [1, 8] was 9.0, the “herbicidal effect rating, ECHORC” value [1, 9] was 9.0 and the “herbicidal effect rating, CYPIR” value (Cyperus iria; [5]) was 7.0. For the same compound, the “herbicidal effect rating, CYPIR” value (Cyperus iria; [6]) was 9.0, the “herbicidal effect rating, CYPIR” value (Cyperus iria; [7]) was 9.0 and the “herbicidal effect rating, CYPIR” value (Cyperus iria; [8]) was 9.0. For the same compound, the “herbicidal effect rating, CYPIR” value (Cyperus iria; [9]) was 9.0, the “herbicidal effect rating, CYPSE” value [2, 5] was 0.0 and the “herbicidal effect rating, CYPSE” value [2, 6] was 0.0. The “herbicidal effect rating, CYPSE” value [2, 7] was 2.0, the “herbicidal effect rating, CYPSE” value [2, 8] was 9.0 and the “herbicidal effect rating, CYPSE” value [2, 9] was 9.0. For the same compound, the “herbicidal effect rating, MOOVA” value [3, 5] was 9.0, the “herbicidal effect rating, MOOVA” value [3, 6] was 9.0 and the “herbicidal effect rating, MOOVA” value [3, 7] was 9.0. The “herbicidal effect rating, MOOVA” value [3, 8] was 9.0, the “herbicidal effect rating, MOOVA” value [3, 9] was 9.0 and the “herbicidal effect rating, SAGPY” value (Sagittaria pygmaea, L.; [5]) was 0.0. The “herbicidal effect rating, SAGPY” value (Sagittaria pygmaea, L.; [6]) was 0.0, the “herbicidal effect rating, SAGPY” value (Sagittaria pygmaea, L.; [7]) was 4.0 and the “herbicidal effect rating, SAGPY” value (Sagittaria pygmaea, L.; [8]) was 4.0. For the same compound, the “herbicidal effect rating, SAGPY” value (Sagittaria pygmaea, L.; [9]) was 0.0, the “herbicidal effect rating ORYSAT” value ([4]; Rate 0.0320 kg/ha) was 4.0 and the “herbicidal effect rating ORYSAT” value ([4]; Rate 0.0620 kg/ha) was 4.0. The “herbicidal effect rating ORYSAT” value ([4]; Rate 0.1250 kg/ha) was 4.0, the “herbicidal effect rating ORYSAT” value ([4]; Rate 0.2500 kg/ha) was 4.0 and the “herbicidal effect rating ORYSAT” value ([4]; Rate 0.5000 kg/ha) was 2.0.

For CCc1nsc2ccc(-n3c(=O)cc(C(F)(F)F)n(C)c3=O)cc12 [Example 119, 3-(3-Ethyl-1,2-benzisothiazol-5-yl)-1-methyl-6-(trifluoromethyl)-2,4(1H,3H)-pyrimidinedione], the “herbicidal effect rating, ECHORC” value [1, 10] was 4.0, the “herbicidal effect rating, ECHORC” value [1, 11] was 9.0 and the “herbicidal effect rating, ECHORC” value [1, 12] was 9.0. The “herbicidal effect rating, ECHORC” value [1, 13] was 9.0, the “herbicidal effect rating, CYPIR” value (Cyperus iria; [10]) was 9.0 and the “herbicidal effect rating, CYPIR” value (Cyperus iria; [11]) was 9.0. For the same compound, the “herbicidal effect rating, CYPIR” value (Cyperus iria; [12]) was 9.0, the “herbicidal effect rating, CYPIR” value (Cyperus iria; [13]) was 9.0 and the “herbicidal effect rating, CYPSE” value [2, 10] was 2.0. The “herbicidal effect rating, CYPSE” value [2, 11] was 4.0, the “herbicidal effect rating, CYPSE” value [2, 12] was 8.0 and the “herbicidal effect rating, CYPSE” value [2, 13] was 9.0. For the same compound, the “herbicidal effect rating, MOOVA” value [3, 10] was 9.0, the “herbicidal effect rating, MOOVA” value [3, 11] was 9.0 and the “herbicidal effect rating, MOOVA” value [3, 12] was 9.0. The “herbicidal effect rating, MOOVA” value [3, 13] was 9.0, the “herbicidal effect rating, SAGPY” value (Sagittaria pygmaea, L.; [10]) was 6.0 and the “herbicidal effect rating, SAGPY” value (Sagittaria pygmaea, L.; [11]) was 8.0. For the same compound, the “herbicidal effect rating, SAGPY” value (Sagittaria pygmaea, L.; [12]) was 8.0, the “herbicidal effect rating, SAGPY” value (Sagittaria pygmaea, L.; [13]) was 9.0 and the “herbicidal effect rating, ORYSAT (rice tolerance)” value (from here on “herbicidal effect rating, ORYSAT”) ([4]; 0.0313 kg/ha) was 7.0. The “herbicidal effect rating, ORYSAT” value ([4]; 0.0625 kg/ha) was 8.0, the “herbicidal effect rating, ORYSAT” value ([4]; 0.1250 kg/ha) was 9.0 and the “herbicidal effect rating, ORYSAT” value ([4]; 0.2500 kg/ha) was 9.0.
